Series [1] can be described thus: Binding affinity to viologen paraquat cation at pH 7.2 by microcalorimetric titration method.
Series [2] is described as follows: Binding affinity to viologen diquat cation at pH 7.2 by microcalorimetric titration method.
Series [3] in a line: Binding affinity to viologen paraquat cation at pH 1.5 by microcalorimetric titration method.
Series [4] is described as follows: Binding affinity to viologen diquat cation at pH 1.5 by microcalorimetric titration method.
The nature of series [5]: Binding affinity to viologen paraquat cation assessed as compound-viologen complex formation by NMR spectroscopy.
A short description of series [6]: Binding affinity to viologen diquat cation assessed as compound-viologen complex formation by NMR spectroscopy.
Series [7] can be described thus: Binding affinity to viologen paraquat cation assessed as compound-viologen complex stability at pH 2 by isothermal calorimetry.
A short description of series [8]: Binding affinity to viologen paraquat cation assessed as decrease in hydroxyl radical production at pH 7.2 by cyclic voltammetry.
The nature of series [9]: Binding affinity to viologen diquat cation assessed as decrease in hydroxyl radical production at pH 7.2 by cyclic voltammetry.
For series [10], the system named is Mus musculus. The series can be described thus: Reduction of viologen poisoning in Kunming mouse assessed as viologen-associated mortality rate at 100 uL/20g body weight, iv for 13 days measured on day 14. Details: scale not given: the % may be the effect or the level left. Format: functional.
Series [11] relates to Mus musculus. Nature of the series: Reduction of viologen poisoning in Kunming mouse assessed as change in body weight at 100 uL/20g body weight, iv for 13 days measured on day 14 (reference value: 14 g). Format: functional.
For series [12], the system named is Mus musculus. Nature of the series: Toxicity in Kunming mouse assessed as change in body weight at 100 uL/20g body weight, iv for 13 days measured on day 14 (reference value: 32.8 +/- 3.8 g). The settings on record: in vivo, 312 h. Format: organism-based.
In series [13] the test system is Mus musculus. The series can be described thus: Reduction of viologen poisoning in Kunming mouse assessed as protection from viologen-associated pathological changes in lung at 100 uL/20g body weight, iv for 13 days measured on day 14 by hematoxylin and eosin staining-based microscopy. Type of series: functional, organism-based.
Series [14] has as its system Mus musculus. The series can be described thus: Reduction of viologen poisoning in Kunming mouse assessed as protection from viologen-associated pathological changes in liver at 100 uL/20g body weight, iv for 13 days measured on day 14 by hematoxylin and eosin staining-based microscopy. Format: functional, organism-based.
Series [15] has as its system Mus musculus. The series can be described thus: Reduction of viologen poisoning in Kunming mouse assessed as viologen-associated mortality rate at 100 uL/20g body weight, iv administered immediately after viologen challenge for 13 days measured on day 14. Type of series: functional. Details: scale not given: the % may be the effect or the level left.
The subject of series [16] is Mus musculus. The series can be described thus: Reduction of viologen poisoning in Kunming mouse assessed as viologen-associated mortality rate at 100 uL/20g body weight, iv administered 1 hr after viologen challenge for 13 days measured on day 14. Format: functional. Details: scale not given: the % may be the effect or the level left.
Series [17] deals with Mus musculus. Nature of the series: Reduction of viologen poisoning in Kunming mouse assessed as viologen-associated mortality rate at 100 uL/20g body weight, iv administered 30 mins after viologen challenge for 13 days measured on day 14. More on the design: scale not given: the % may be the effect or the level left. Format: functional.
The test system of series [18] is Mus musculus. Nature of the series: Reduction of viologen poisoning in Kunming mouse assessed as viologen-associated mortality rate at 100 uL/20g body weight, iv administered 2 hrs after viologen challenge for 13 days measured on day 14. Format: functional. Details: scale not given: the % may be the effect or the level left.
The test system of series [19] is Mus musculus. Nature of the series: Reduction of viologen poisoning in Kunming mouse assessed as protection from viologen-associated pathological changes in lung at 100 uL/20g body weight, iv administered immediately after viologen challenge for 13 days measured on day 14 by hematoxylin and eosin staining-based microscopy. Format: functional, organism-based.
Series [20] deals with Mus musculus. Nature of the series: Reduction of viologen poisoning in Kunming mouse assessed as protection from viologen-associated pathological changes in lung at 100 uL/20g body weight, iv administered 30 mins after viologen challenge for 13 days measured on day 14 by hematoxylin and eosin staining-based microscopy. Type of series: functional, organism-based.
In series [21] the test system is Mus musculus. The series can be described thus: Reduction of viologen poisoning in Kunming mouse assessed as protection from viologen-associated pathological changes in lung at 100 uL/20g body weight, iv administered 1 hr after viologen challenge for 13 days measured on day 14 by hematoxylin and eosin staining-based microscopy. Format: functional, organism-based.

Series [22] concerns Mus musculus. Nature of the series: Reduction of viologen poisoning in Kunming mouse assessed as protection from viologen-associated pathological changes in lung at 100 uL/20g body weight, iv administered 2 hrs after viologen challenge for 13 days measured on day 14 by hematoxylin and eosin staining-based microscopy. Type of series: functional, organism-based.
In series [23] the test system is Mus musculus. Nature of the series: Reduction of viologen poisoning in Kunming mouse assessed as change in body weight at 100 uL/20g body weight, iv administered 30 mins after viologen challenge for 13 days measured on day 14 (reference value: 14 g). Type of series: functional.
Series [24] deals with Mus musculus. Nature of the series: Reduction of viologen poisoning in Kunming mouse assessed as change in body weight at 100 uL/20g body weight, iv administered immediately after viologen challenge for 13 days measured on day 14 (reference value: 14 g). Type of series: functional.
In series [25] the test system is Mus musculus. The series can be described thus: Reduction of viologen poisoning in Kunming mouse assessed as change in body weight at 100 uL/20g body weight, iv administered 1 hr after viologen challenge for 13 days measured on day 14 (reference value: 14 g). Format: functional.
The test system of series [26] is Mus musculus. The series can be described thus: Reduction of viologen poisoning in Kunming mouse assessed as change in body weight at 100 uL/20g body weight, iv administered 2 hrs after viologen challenge for 13 days measured on day 14 (reference value: 14 g). Type of series: functional.
Series [27] in a line: Binding affinity to viologen diquat cation assessed as compound-viologen complex stability at pH 2 by isothermal calorimetry.
Series [28] is described as follows: Binding affinity to viologen paraquat cation assessed as compound-viologen complex stability at pH 7.2 by isothermal calorimetry. A general note: Isothermal titration calorimetry measures the heat released or taken up as one component is titrated into another.
Series [29] in a line: Binding affinity to viologen diquat cation assessed as compound-viologen complex stability at pH 7.2 by isothermal calorimetry.

Molecules are shown by their SMILES. The source made the active and inactive calls. The calls are words filed in the database; no cut-off is given here.

As to `O=S(=O)(O)c1cc2c(O)c(c1)Cc1cc(S(=O)(=O)O)cc(c1O)Cc1cc(S(=O)(=O)O)cc(c1O)Cc1cc(S(=O)(=O)O)cc(c1O)Cc1cc(S(=O)(=O)O)cc(c1O)C2`, the outcome in [1], in series [2], in [3], in series [4], in [5] and in [6] was Active. For the same compound, the outcome (in [8]; in [9]; with Mus musculus [13]; in the series with Mus musculus [14]; in the series on Mus musculus [19]; in the series with Mus musculus [20]) was Active. In addition, the result in the series on Mus musculus [21] and in the series on Mus musculus [22] was Active. For the same compound, the Ks in series [7] was 5.5 10^3/M; in series [27] it was 1.12 10^5/M; in series [28], 2.51 10^5/M; in series [29], 3.23 10^6/M. Moreover, the Activity is 20% in the series on Mus musculus [10]; 30.8 g with Mus musculus [11]; 33.4 g in the series on Mus musculus [12]; 40% in the series on Mus musculus [15]; 0% with Mus musculus [16]; 40% in the series on Mus musculus [17]. The Activity was 40% in the series on Mus musculus [18]; 31 g in the series on Mus musculus [23]; 31 g in the series on Mus musculus [24]; 31 g in the series on Mus musculus [25]; 31 g in the series with Mus musculus [26].

For `O=S(=O)(O)c1cc2c(O)c(c1)Sc1cc(S(=O)(=O)O)cc(c1O)Sc1cc(S(=O)(=O)O)cc(c1O)Sc1cc(S(=O)(=O)O)cc(c1O)S2`, the Ks in [7] is 2.22 10^3/M; in series [27] it was 2.39 10^4/M; in [28] it was 8.68 10^3/M; in series [29], 4.57 10^4/M. Besides, the outcome in series [8] and in series [9] was Active.

Consider `O=S(=O)(O)c1cc2c(O)c(c1)Cc1cc(S(=O)(=O)O)cc(c1O)Cc1cc(S(=O)(=O)O)cc(c1O)Cc1cc(S(=O)(=O)O)cc(c1O)C2`, for which the result in series [1], in series [2], in series [3], in [4], in series [5] and in series [6] was Active. Further, the outcome in series [8] and in series [9] was Active. Further, the Ks in series [7] is 3.09 10^4/M; in series [27], 5.4 10^5/M; in series [28], 9.33 10^4/M; in series [29], 7.95 10^5/M.

The record behind these values is ChEMBL document CHEMBL1156249, “Highly effective binding of viologens by p-sulfonatocalixarenes for the treatment of viologen poisoning” (J Med Chem, 2009).
